Reference: patent US20100249698A1, “CONTROLLED EXOTHERM OF CYANOACRYLATE FORMULATIONS” (priority 2009, published 2010)

Assays:
[1] = potentiometric titration at 25° C. in 0.15 M sodium chloride solution; cited from earlier work
[2] = Setting time and exotherm (setting temperature) of cyanoacrylate film polymerized via initiator-impregnated porous applicator tip; format: physicochemical; details: Quadrol as initiator in porous tip with 2-OCA formulations A and B

- cure time [2]: clinically acceptable timeframe
SMILES: CC(O)CN(CCN(CC(C)O)CC(C)O)CC(C)O (stereo not drawn) [Quadrol, N,N,N′,N′-tetrakis(2-hydroxypropyl)ethylenediamine]
- pKa1 (tertiary amine group) [1]: 8.99±0.04
- pKa2 (quaternary ammonium form) [1]: 4.30±0.04
